This note sets out measurements from US6979686B1, “Substituted pyrazoles as p38 kinase inhibitors” (Pharmacia Corporation, priority 2001, dated 2005).

For orientation: IC50 means the concentration that gives 50% inhibition.

The structures appear in SMILES notation.

T1 sequence (Q16539 whole entry): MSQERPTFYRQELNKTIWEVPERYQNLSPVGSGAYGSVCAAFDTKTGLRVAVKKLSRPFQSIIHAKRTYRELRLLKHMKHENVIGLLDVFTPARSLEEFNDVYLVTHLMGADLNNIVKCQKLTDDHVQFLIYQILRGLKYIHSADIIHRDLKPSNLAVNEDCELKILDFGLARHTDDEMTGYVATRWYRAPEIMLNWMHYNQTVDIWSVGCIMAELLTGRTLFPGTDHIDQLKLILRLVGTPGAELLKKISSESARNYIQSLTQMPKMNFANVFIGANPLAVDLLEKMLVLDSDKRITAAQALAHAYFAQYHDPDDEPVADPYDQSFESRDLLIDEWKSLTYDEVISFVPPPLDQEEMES

One test concerns the target T1, human p38 kinase alpha (Homo sapiens, UniProt Q16539).
T1 construct: GST (N, cleaved yes); made in house; host or cells: E. coli DH10B
Kind of test: p38 kinase in vitro assay, phosphorylation of biotinylated PHAS-I with 32P-ATP. The format is biochemical. Conditions: @ 1.0 uM.
For the molecule `CCOC(=O)NCCc1[nH]nc(-c2ccc(F)cc2)c1-c1ccncc1` [Example B-1054], the “P38 alpha kinase % inhib @ conc. (uM)” value is 79.0% @.

With `O=C(NCCc1[nH]nc(-c2ccc(F)cc2)c1-c1ccncc1)c1ccccc1I` [Example B-0982], the “P38 alpha kinase % inhib @ conc. (uM)” value worked out at 65.0% @.

In the case of `O=C(NCCc1ccccc1)NCCc1[nH]nc(-c2ccc(F)cc2)c1-c1ccncc1` [Example B-0945], the “P38 alpha kinase % inhib @ conc. (uM)” value is given as 96.0% @.

Take `O=C(NCCc1[nH]nc(-c2ccc(F)cc2)c1-c1ccncc1)C1CC1` [Example B-0989]: the “P38 alpha kinase % inhib @ conc. (uM)” value was 85.0% @.

In the case of `COCC(=O)NCCc1[nH]nc(-c2ccc(F)cc2)c1-c1ccncc1` [Example B-0994], the “P38 alpha kinase % inhib @ conc. (uM)” value came out at 55.0% @.

Consider `O=C(NCCc1[nH]nc(-c2ccc(F)cc2)c1-c1ccncc1)N1CCOCC1` [Example B-1033], for which the “P38 alpha kinase % inhib @ conc. (uM)” value worked out at 86.0% @.

For `O=S(=O)(NCCCc1[nH]nc(-c2ccc(F)cc2)c1-c1ccncc1)c1ccc(F)cc1` [Example B-1190], the “P38 alpha kinase % inhib @ conc. (uM)” value was found to be 78.0% @.

For the molecule `O=S(=O)(Cc1ccccc1)NCCCc1[nH]nc(-c2ccc(F)cc2)c1-c1ccncc1` [Example B-1194], the “P38 alpha kinase % inhib @ conc. (uM)” value came out at 87.0% @.

Take `COc1ccc(S(=O)(=O)NCCCc2[nH]nc(-c3ccc(F)cc3)c2-c2ccncc2)cc1` [Example B-1202]: the “P38 alpha kinase % inhib @ conc.” value is 71.0% @.

For `CCN(CC)C(=O)NCCc1[nH]nc(-c2ccc(F)cc2)c1-c1ccncc1` [Example B-1048], the “P38 alpha kinase % inhib @ conc. (uM)” value was determined as 67.0% @.

With `CS(=O)(=O)NCCc1[nH]nc(-c2ccc(F)cc2)c1-c1ccncc1` [Example B-1024], the “P38 alpha kinase % inhib @ conc. (uM)” value came to 89.0% @.

With `COCC(=O)NCCCc1[nH]nc(-c2ccc(F)cc2)c1-c1ccncc1` [Example B-1171], the “P38 alpha kinase % inhib @ conc. (uM)” value was 78.0% @.

Still in this test, the particulars now being: @ 10.0 uM.
For `COC(=O)[C@H](COCc1ccccc1)NC(=O)Cn1nc(-c2ccc(F)cc2)c(-c2ccncc2)c1C` [Example B-2359], the “P38 alpha kinase % inhib @ conc.” value is listed as 76.0% @.

As for `CCN1CC(NC(=O)Cn2nc(-c3ccc(F)cc3)c(-c3ccncc3)c2C)CN1CC` [Example B-2357], the “P38 alpha kinase % inhib @ conc.” value worked out at 47.0% @.

Take `CCCCC(C)NC(=O)Cn1nc(-c2ccc(F)cc2)c(-c2ccncc2)c1C` (stereo not shown) [Example B-2319]: the “P38 alpha kinase % inhib @ conc.” value was found to be 75.0% @.

As to `Cc1c(-c2ccncc2)c(-c2ccc(F)cc2)nn1CC(=O)Nc1ccc(OCCOc2ccccc2)cc1` [Example B-2448], the “P38 alpha kinase IC50, uM or % inhib @ conc. (uM): % inhib” value (“P38 alpha kinase IC50 … % inhib” below) came to 75.0% @.

For the molecule `Cc1c(-c2ccncc2)c(-c2ccc(F)cc2)nn1CC(=O)Nc1ccccc1C(C)(C)C` [Example B-2435], the “P38 alpha kinase IC50 … % inhib” value came to 84.0% @.

With `CCOC(=O)c1cc(-c2ccc(NC(=O)Cn3nc(-c4ccc(F)cc4)c(-c4ccncc4)c3C)cc2)oc1C` [Example B-2450], the “P38 alpha kinase IC50 … % inhib” value was 87.0% @.

Still in this test, the particulars now being: Table 8; 1% DMSO; read-out: p38α Kinase Assay IC50.
`O=C(O)c1n[nH]c(-c2ccc(F)cc2)c1-c1ccncc1` [A-313, Step 1, 5-(4-fluorophenyl)-4-(4pyridinyl)-1H-pyrazole-3-carboxylic acid, monohydrate]: the IC50 was found to be 1340 nM.

The same test, now with this note: in vitro P38-alpha kinase inhibition; read-out: P38 alpha kinase IC50.
For the molecule `CC(NC(=O)NC(Cc1ccccc1)c1[nH]nc(-c2ccc(F)cc2)c1-c1ccncc1)c1ccccc1` (stereo not shown) [Example B-0739], the IC50 was found to be 4100 nM.

As to `CC(NS(=O)(=O)c1cn(C)cn1)c1[nH]nc(-c2ccc(F)cc2)c1-c1ccncc1` (stereo not shown) [Example B-0663], the IC50 turned out to be 880 nM.

Take `Cc1cccc(Cl)c1S(=O)(=O)N[C@H](C)c1[nH]nc(-c2ccc(F)cc2)c1-c1ccncc1` [Example B-0467]: the IC50 is less than 100 nM.

Turning to `COc1ccc(NC(=O)NC(Cc2ccccc2)c2[nH]nc(-c3ccc(F)cc3)c2-c2ccncc2)cc1` (stereo not shown) [Example B-0741], the IC50 came to 26000 nM.

For the molecule `O=C(Nc1ccccc1)NC(Cc1ccccc1)c1[nH]nc(-c2ccc(F)cc2)c1-c1ccncc1` (stereo not shown) [Example B-0782], the concentration for half-maximal inhibition (IC50) was found to be 22000 nM.

Regarding `CC(NC(=O)c1c(F)cccc1F)c1[nH]nc(-c2ccc(F)cc2)c1-c1ccncc1` (stereo not shown) [Example B-0700], the IC50 was found to be 240 nM.

Regarding `COc1ccc(C)cc1S(=O)(=O)NC(C)c1[nH]nc(-c2ccc(F)cc2)c1-c1ccncc1` (stereo not shown) [Example B-0647], the IC50 is 1610 nM.

For `COc1ccc(NC(=O)NC(Cc2ccccc2)c2[nH]nc(-c3ccc(F)cc3)c2-c2ccncc2)c(OC)c1` (stereo not shown) [Example B-0789], the IC50 was found to be 33000 nM.

As for `CC(C)OC(=O)NC(Cc1ccccc1)c1[nH]nc(-c2ccc(F)cc2)c1-c1ccncc1` (stereo not shown) [Example B-0751], the IC50 was 1600 nM.

`COc1ccc(Cl)cc1S(=O)(=O)NCCc1[nH]nc(-c2ccc(F)cc2)c1-c1ccncc1` [Example B-1106]: the IC50 is less than 100 nM.

In the case of `CC(NS(=O)(=O)c1cccc2ccccc12)c1[nH]nc(-c2ccc(F)cc2)c1-c1ccncc1` (stereo not shown) [Example B-0618], the IC50 came to 370 nM.

`O=S(=O)(NCCc1[nH]nc(-c2ccc(F)cc2)c1-c1ccncc1)c1cccc2nonc12` [Example B-1105]: the IC50 was less than 100 nM.

On to `O=C(NCCc1[nH]nc(-c2ccc(F)cc2)c1-c1ccncc1)c1ccc(F)c(F)c1` [Example B-1129], for which the IC50 is 1070 nM.

As to `O=C(NC(Cc1ccccc1)c1[nH]nc(-c2ccc(F)cc2)c1-c1ccncc1)C1CCC1` (stereo not shown) [Example B-0836], the IC50 is 1240 nM.

For the molecule `O=S(=O)(NCCc1[nH]nc(-c2ccc(F)cc2)c1-c1ccncc1)c1cccc(Br)c1` [Example B-1083], the IC50 was less than 100 nM.

With `Cc1ccc(C(=O)NC(Cc2ccccc2)c2[nH]nc(-c3ccc(F)cc3)c2-c2ccncc2)cc1` (stereo not shown) [Example B-0850], the IC50 is 1810 nM.

Consider `O=C(NC(Cc1ccccc1)c1[nH]nc(-c2ccc(F)cc2)c1-c1ccncc1)c1ccc(I)cc1` (stereo not shown) [Example B-0807], for which the IC50 was 10800 nM.

In the case of `Cc1cccc(C(=O)NCCc2[nH]nc(-c3ccc(F)cc3)c2-c2ccncc2)c1` [Example B-1143], the IC50 amounted to 170 nM.

Consider `Cc1ccc(C)c(S(=O)(=O)NC(C)c2[nH]nc(-c3ccc(F)cc3)c2-c2ccncc2)c1` (stereo not shown) [Example B-0645], for which the IC50 came to 580 nM.

Consider `CC(NC(=O)c1ccccc1C(F)(F)F)c1[nH]nc(-c2ccc(F)cc2)c1-c1ccncc1` (stereo not shown) [Example B-0545], for which the IC50 amounted to 1060 nM.

Consider `O=C(NCCc1[nH]nc(-c2ccc(F)cc2)c1-c1ccncc1)c1cccc(F)c1F` [Example B-1146], for which the IC50 turned out to be 470 nM.

With `CC(NC(=O)c1ccncc1)c1[nH]nc(-c2ccc(F)cc2)c1-c1ccncc1` (stereo not shown) [Example B-0555], the IC50 worked out at 1870 nM.

On to `COc1ccc(S(=O)(=O)NC(C)c2[nH]nc(-c3ccc(F)cc3)c2-c2ccncc2)cc1OC` (stereo not shown) [Example B-0577], for which the IC50 was 91 nM.

Staying with this test, now noted: in vitro P38-alpha kinase; read-out: P38 alpha kinase IC50.
With `O=C(NCCCc1[nH]nc(-c2ccc(F)cc2)c1-c1ccncc1)c1ccccc1Cl` [Example B-1343], the IC50 worked out at 65 nM.

`O=C(c1ccc(C(F)(F)F)cc1F)N1CCC(c2[nH]nc(-c3ccc(F)cc3)c2-c2ccncc2)CC1` [Example B-1406]: the IC50 came out at 1390 nM.

`Cc1ccc(S(=O)(=O)NCCNC(=O)Cn2nc(-c3ccc(F)cc3)c(-c3ccncc3)c2C)cc1` [Example B-2299]: the IC50 was 1970 nM.

With `Cc1ccccc1C(=O)N1CCC(c2[nH]nc(-c3ccc(F)cc3)c2-c2ccncc2)CC1` [Example B-1400], the IC50 came to 24 nM.

On to `O=S(=O)(c1c(Cl)cccc1Cl)N1CCC(c2[nH]nc(-c3ccc(F)cc3)c2-c2ccncc2)CC1` [Example B-1451], for which the IC50 amounted to 2880 nM.

Regarding `N#Cc1ccccc1S(=O)(=O)N1CCC(c2[nH]nc(-c3ccc(F)cc3)c2-c2ccncc2)CC1` [Example B-1461], the IC50 amounted to 400 nM.

Regarding `O=C(NCCCc1[nH]nc(-c2ccc(F)cc2)c1-c1ccncc1)c1cccs1` [Example B-1357], the IC50 is 180 nM.

As for `O=S(=O)(c1ccc(OC(F)(F)F)cc1)N1CCC(c2[nH]nc(-c3ccc(F)cc3)c2-c2ccncc2)CC1` [Example B-1477], the IC50 was found to be 2500 nM.

For `Cc1ccccc1C(=O)NCCCc1[nH]nc(-c2ccc(F)cc2)c1-c1ccncc1` [Example B-1321], the IC50 turned out to be 470 nM.

As to `CCSCCNC(=O)Cn1nc(-c2ccc(F)cc2)c(-c2ccncc2)c1C` [Example B-2312], the IC50 amounted to 2930 nM.

Consider `O=C(c1c(F)cccc1F)N1CCC(c2[nH]nc(-c3ccc(F)cc3)c2-c2ccncc2)CC1` [Example B-1401], for which the IC50 is 33 nM.

Consider `O=C(NCCCc1[nH]nc(-c2ccc(F)cc2)c1-c1ccncc1)c1cc(F)ccc1F` [Example B-1349], for which the IC50 amounted to 37 nM.

In the case of `O=S(=O)(NCCCc1[nH]nc(-c2ccc(F)cc2)c1-c1ccncc1)c1ccccc1Cl` [Example B-1268], the IC50 was less than 100 nM.

`O=C(c1ccccc1C(F)(F)F)N1CCC(c2[nH]nc(-c3ccc(F)cc3)c2-c2ccncc2)CC1` [Example B-1399]: the IC50 came out at 140 nM.

On to `Cc1c(-c2ccncc2)c(-c2ccc(F)cc2)nn1CC(=O)NCCN1CCOCC1` [Example B-2284], for which the IC50 worked out at 4610 nM.

On to `CCCS(=O)(=O)N1CCC(c2[nH]nc(-c3ccc(F)cc3)c2-c2ccncc2)CC1` [Example B-1431], for which the IC50 stood at 360 nM.

As for `CC(=O)Nc1nc(C)c(S(=O)(=O)NCCCc2[nH]nc(-c3ccc(F)cc3)c2-c2ccncc2)s1` [Example B-1235], the IC50 is 40 nM.

Turning to `CS(=O)(=O)c1ccccc1S(=O)(=O)NCCCc1[nH]nc(-c2ccc(F)cc2)c1-c1ccncc1` [Example B-1294], the IC50 worked out at 13 nM.

Regarding `Cc1cccc(S(=O)(=O)NCCCc2[nH]nc(-c3ccc(F)cc3)c2-c2ccncc2)c1` [Example B-1266], the IC50 is less than 100 nM.

Consider `Cc1c(-c2ccncc2)c(-c2ccc(F)cc2)nn1CC(=O)NCCc1ccc(F)cc1` [Example B-2271], for which the IC50 turned out to be 930 nM.

`Cc1c(-c2ccncc2)c(-c2ccc(F)cc2)nn1CC(=O)NCCC#N` [Example B-2314]: the IC50 amounted to 11000 nM.

`CCOC(=O)N1CCC(c2[nH]nc(-c3ccc(F)cc3)c2-c2ccncc2)CC1` [Example B-1422]: the IC50 is 580 nM.
